Assay results as given in patent US6376426B1, “Herbicidal 3-(heterocycl-1-yl)-uracils” (BASF Aktiengesellschaft, priority 1999, dated 2002).

Key:
Format in all cases: in vivo
Abutilon theophrasti [1] = assay: Pre-emergence herbicidal test, ABUTH; design: key to herbicidal effect (0-9 scale) ABUTH / herbicidal rating ABUTH: A rating 0 indicates growth as untreated control; a rating 9 indicates death; conditions: PRE, 0-9 scale, 21 days after spraying
Method: (§1) To evaluate their herbicidal activity, compounds according to the invention are tested using a representative range of plants:
(§2) The pre-emergence tests involve spraying a liquid formulation of the compound onto the soil in which the seeds of the plant species mentioned above has recently been sown.
(§3) The soil used in the tests is a prepared horticultural loam. The formulations used in the tests are prepared from solutions of the test compounds in acetone containing 0.4% by weight of an alkylphenol/ethylene oxide condensate available under the trade mark TRITON X-155. […] In these tests untreated sown soil are used as controls.
(§4) The herbicidal effects of the test compounds are assessed visually twenty-one days after spraying the foliage and the soil and are recorded on a 0-9 scale. A rating 0 indicates growth as untreated control, a rating 9 indicates death. An increase of 1 unit on the linear scale approximates to a 10% increase in the level of effect.

Matricaria inodora [2] = assay: Post-emergence herbicidal test, MATIN; design: key to herbicidal effect (0-9 scale) MATIN / herbicidal rating MATIN: A rating 0 indicates growth as untreated control; a rating 9 indicates death; conditions: POST, 0-9 scale, 21 days after spraying
Method: as §1
(§5) […] After spraying, the plants are placed on greenhouse benches and are cared for in the usual manner, commensurate with conventional greenhouse practices.
as §4

Ipomoea hederacea [3] = assay: Post-emergence herbicidal test, IPOHE; design: key to herbicidal effect (0-9 scale) IPOHE / herbicidal rating IPOHE: A rating 0 indicates growth as untreated control; a rating 9 indicates death; conditions: POST, 0-9 scale, 21 days after spraying
Method: as §1, §5, §4

Echinochloa crus-galli [4] = assay: Pre-emergence herbicidal test, ECHCG; design: key: A rating 0 indicates growth as untreated control; a rating 9 indicates death; conditions: 0-9 scale, 21 days after spraying
Method: as §1, §2, §3, §4

Abutilon theophrasti [5] = assay: Post-emergence herbicidal test, ABUTH; design: key to herbicidal effect (0-9 scale) ABUTH / herbicidal rating ABUTH: A rating 0 indicates growth as untreated control; a rating 9 indicates death; conditions: POST, 0-9 scale, 21 days after spraying
Method: as §1, §5, §4

Glycine max [6] = assay: Pre-emergence herbicidal test, GLXMA; design: key to herbicidal effect (0-9 scale) GLXMA / herbicidal rating GLXMA: A rating 0 indicates growth as untreated control; a rating 9 indicates death; conditions: for herbicidal rating GLXMA: PRE, 0-9 scale, 21 days after spraying
Method: as §1, §2, §3, §4

Zea mays [7] = assay: Pre-emergence herbicidal test, ZEAMX; design: key to herbicidal effect (0-9 scale) ZEAMX / herbicidal rating ZEAMX: A rating 0 indicates growth as untreated control; a rating 9 indicates death; conditions: for herbicidal rating ZEAMX: PRE, 0-9 scale, 21 days after spraying
Method: as §1, §2, §3, §4

Ipomoea hederacea [8] = assay: Pre-emergence herbicidal test, IPOHE; design: key: A rating 0 indicates growth as untreated control; a rating 9 indicates death; conditions: 0-9 scale, 21 days after spraying
Method: as §1, §2, §3, §4

Galium aparine [9] = assay: Pre-emergence herbicidal test, GALAP; design: key to herbicidal effect (0-9 scale) GALAP / herbicidal rating GALAP: A rating 0 indicates growth as untreated control; a rating 9 indicates death; conditions: PRE, 0-9 scale, 21 days after spraying
Method: as §1, §2, §3, §4

Matricaria inodora [10] = assay: Pre-emergence herbicidal test, MATIN; design: key to herbicidal effect (0-9 scale) MATIN / herbicidal rating MATIN: A rating 0 indicates growth as untreated control; a rating 9 indicates death; conditions: PRE, 0-9 scale, 21 days after spraying
Method: as §1, §2, §3, §4

Galium aparine [11] = assay: Post-emergence herbicidal test, GALAP; design: key to herbicidal effect (0-9 scale) GALAP / herbicidal rating GALAP: A rating 0 indicates growth as untreated control; a rating 9 indicates death; conditions: POST, 0-9 scale, 21 days after spraying
Method: as §1, §5, §4

[12] = tested on: representative range of plants; assay: Herbicidal activity, pre- and post-emergence, overall; conditions: both in pre- and post-emergence
Method: as §1, §2
The soil used in the tests is a prepared horticultural loam. The formulations used in the tests are prepared from solutions of the test compounds in acetone containing 0.4% by weight of an alkylphenol/ethylene oxide condensate available under the trade mark TRITON X-155. These acetone solutions are diluted with water and the resulting formulations applied at dosage levels corresponding to 1000 g and 250 g/ha of active material per hectare in a volume equivalent to 900 litres per hectare. In these tests untreated sown soil are used as controls.
These acetone solutions are diluted with water and the resulting formulations applied at dosage levels equivalent to about 1000, 800, 400, 250 or 100 g/ha per hectare of test compound per pot. After spraying, the plants are placed on greenhouse benches and are cared for in the usual manner, commensurate with conventional greenhouse practices.
as §4

[13] = tested on: representative range of plants; assay: Post-emergence herbicidal test, summary over the plants tested
Method: as §1, §5, §4

Stellaria media [14] = assay: Pre-emergence herbicidal test, STEME; design: key to herbicidal effect (0-9 scale) STEME / herbicidal rating STEME: A rating 0 indicates growth as untreated control; a rating 9 indicates death; conditions: PRE, 0-9 scale, 21 days after spraying
Method: as §1, §2, §3, §4

Stellaria media [15] = assay: Post-emergence herbicidal test, STEME; design: key to herbicidal effect (0-9 scale) STEME / herbicidal rating STEME: A rating 0 indicates growth as untreated control; a rating 9 indicates death; conditions: POST, 0-9 scale, 21 days after spraying
Method: as §1, §5, §4

Alopecurus myosuroides [16] = assay: Pre-emergence herbicidal test, ALOMY; design: key to herbicidal effect (0-9 scale) ALOMY / herbicidal rating ALOMY: A rating 0 indicates growth as untreated control; a rating 9 indicates death; conditions: for herbicidal rating ALOMY: PRE, 0-9 scale, 21 days after spraying
Method: as §1, §2, §3, §4

Glycine max [17] = assay: Post-emergence herbicidal test, GLXMA; design: key: A rating 0 indicates growth as untreated control; a rating 9 indicates death; conditions: 0-9 scale, 21 days after spraying
Method: as §1, §5, §4

Setaria viridis [18] = assay: Pre-emergence herbicidal test, SETVI; design: key to herbicidal effect (0-9 scale) SETVI / herbicidal rating SETVI: A rating 0 indicates growth as untreated control; a rating 9 indicates death; conditions: PRE, 0-9 scale, 21 days after spraying
Method: as §1, §2, §3, §4

Setaria viridis [19] = assay: Post-emergence herbicidal test, SETVI; design: key to herbicidal effect (0-9 scale) SETVI / herbicidal rating SETVI: A rating 0 indicates growth as untreated control; a rating 9 indicates death; conditions: POST, 0-9 scale, 21 days after spraying
Method: as §1, §5, §4

Zea mays [20] = assay: Post-emergence herbicidal test, ZEAMX; design: key: A rating 0 indicates growth as untreated control; a rating 9 indicates death; conditions: 0-9 scale, 21 days after spraying
Method: as §1, §5, §4

[21] = tested on: representative range of plants; assay: Pre-emergence herbicidal test, summary over the plants tested; conditions: 100 g/ha
Method: as §1, §2, §3, §4

Echinochloa crus-galli [22] = assay: Post-emergence herbicidal test, ECHCG; design: key: A rating 0 indicates growth as untreated control; a rating 9 indicates death; conditions: 0-9 scale, 21 days after spraying
Method: as §1, §5, §4

Alopecurus myosuroides [23] = assay: Post-emergence herbicidal test, ALOMY; design: key: A rating 0 indicates growth as untreated control; a rating 9 indicates death; conditions: 0-9 scale, 21 days after spraying
Method: as §1, §5, §4

Cn1c(C(F)(F)F)cc(=O)n(-n2ncc3c(Cl)cccc32)c1=O [Example 168, 3-(4-Chloro-1-indazol-1-yl)-1-methyl-6trifluoromethylpyrimidine-2,4-dione] was tested, and the “herbicidal rating ABUTH” value (Abutilon theophrasti [1]; 12.5 g/ha) was 9, the “herbicidal rating ABUTH” value (Abutilon theophrasti [1]; 25 g/ha) was 9 and the “herbicidal rating ABUTH” value (Abutilon theophrasti [1]; 100 g/ha) was 9. For the same compound, the “herbicidal rating MATIN” value (Matricaria inodora [2]; 12.5 g/ha) was 8, the “herbicidal rating MATIN” value (Matricaria inodora [2]; 25 g/ha) was 9 and the “herbicidal rating MATIN” value (Matricaria inodora [2]; 100 g/ha) was 9. The “herbicidal rating IPOHE” value (Ipomoea hederacea [3]; 12.5 g/ha) was 9, the “herbicidal rating IPOHE” value (Ipomoea hederacea [3]; 25 g/ha) was 9 and the “herbicidal rating IPOHE” value (Ipomoea hederacea [3]; 100 g/ha) was 9. For the same compound, the “herbicidal rating ECHCG” value (Echinochloa crus-galli [4]; 12.5 g/ha) was 0, the “herbicidal rating ECHCG” value (Echinochloa crus-galli [4]; 25 g/ha) was 1 and the “herbicidal rating ECHCG” value (Echinochloa crus-galli [4]; 100 g/ha) was 6. For the same compound, the “herbicidal rating ABUTH” value (Abutilon theophrasti [5]; 12.5 g/ha) was 9, the “herbicidal rating ABUTH” value (Abutilon theophrasti [5]; 25 g/ha) was 9 and the “herbicidal rating ABUTH” value (Abutilon theophrasti [5]; 100 g/ha) was 9. For the same compound, the “herbicidal rating GLXMA” value (Glycine max [6]; 12.5 g/ha) was 0, the “herbicidal rating GLXMA” value (Glycine max [6]; 25 g/ha) was 0 and the “herbicidal rating GLXMA” value (Glycine max [6]; 100 g/ha) was 0. The “selectivity in soy beans” value (Glycine max [6]; pre-emergence, 100 g/ha) was “Surprisingly good selectivity”, the “herbicidal rating ZEAMX” value (Zea mays [7]; 12.5 g/ha) was 0 and the “herbicidal rating ZEAMX” value (Zea mays [7]; 25 g/ha) was 0. For the same compound, the “herbicidal rating ZEAMX” value (Zea mays [7]; 100 g/ha) was 1, the “selectivity in maize” value (Zea mays [7]; pre-emergence, 100 g/ha) was “Surprisingly good selectivity” and the “herbicidal rating IPOHE” value (Ipomoea hederacea [8]; 12.5 g/ha) was 0. For the same compound, the “herbicidal rating IPOHE” value (Ipomoea hederacea [8]; 25 g/ha) was 3, the “herbicidal rating IPOHE” value (Ipomoea hederacea [8]; 100 g/ha) was 7 and the “herbicidal rating GALAP” value (Galium aparine [9]; 12.5 g/ha) was 3. The “herbicidal rating GALAP” value (Galium aparine [9]; 25 g/ha) was 6, the “herbicidal rating GALAP” value (Galium aparine [9]; 100 g/ha) was 9 and the “herbicidal rating MATIN” value (Matricaria inodora [10]; 12.5 g/ha) was 8. For the same compound, the “herbicidal rating MATIN” value (Matricaria inodora [10]; 25 g/ha) was 8, the “herbicidal rating MATIN” value (Matricaria inodora [10]; 100 g/ha) was 9 and the “herbicidal rating GALAP” value (Galium aparine [11]; 12.5 g/ha) was 9. The “herbicidal rating GALAP” value (Galium aparine [11]; 25 g/ha) was 9, the “herbicidal rating GALAP” value (Galium aparine [11]; 100 g/ha) was 9 and the “herbicidal performance” value [12] was “good performance”. The “control of broadleaf weeds” value ([13]; 12.5 g/ha) was “all broadleaf weeds were still well controlled”, the “control of the weeds” value ([13]; 100 g/ha) was “good cross spectrum control on both broadleaf weeds and grasses except Alopecurus and Echinochloa” and the “herbicidal rating STEME” value (Stellaria media [14]; 12.5 g/ha) was 1. The “herbicidal rating STEME” value (Stellaria media [14]; 25 g/ha) was 3, the “herbicidal rating STEME” value (Stellaria media [14]; 100 g/ha) was 9 and the “herbicidal rating STEME” value (Stellaria media [15]; 12.5 g/ha) was 7. For the same compound, the “herbicidal rating STEME” value (Stellaria media [15]; 25 g/ha) was 7, the “herbicidal rating STEME” value (Stellaria media [15]; 100 g/ha) was 9 and the “herbicidal rating ALOMY” value (Alopecurus myosuroides [16]; 12.5 g/ha) was 0. The “herbicidal rating ALOMY” value (Alopecurus myosuroides [16]; 25 g/ha) was 0, the “herbicidal rating ALOMY” value (Alopecurus myosuroides [16]; 100 g/ha) was 2 and the “control of Alopecurus” value (Alopecurus myosuroides [16]; pre-emergence, 100 g/ha) was “well controlled”. The “herbicidal rating GLXMA” value (Glycine max [17]; 12.5 g/ha) was 5, the “herbicidal rating GLXMA” value (Glycine max [17]; 25 g/ha) was 6 and the “herbicidal rating GLXMA” value (Glycine max [17]; 100 g/ha) was 9. The “herbicidal rating SETVI” value (Setaria viridis [18]; 12.5 g/ha) was 2, the “herbicidal rating SETVI” value (Setaria viridis [18]; 25 g/ha) was 5 and the “herbicidal rating SETVI” value (Setaria viridis [18]; 100 g/ha) was 9. The “herbicidal rating SETVI” value (Setaria viridis [19]; 12.5 g/ha) was 6, the “herbicidal rating SETVI” value (Setaria viridis [19]; 25 g/ha) was 7 and the “herbicidal rating SETVI” value (Setaria viridis [19]; 100 g/ha) was 9. The “herbicidal rating ZEAMX” value (Zea mays [20]; 12.5 g/ha) was 0, the “herbicidal rating ZEAMX” value (Zea mays [20]; 25 g/ha) was 1 and the “herbicidal rating ZEAMX” value (Zea mays [20]; 100 g/ha) was 3. For the same compound, the “control of the weeds” value [21] was “four out of five broadleaf weeds were well controlled”, the “herbicidal rating ECHCG” value (Echinochloa crus-galli [22]; 12.5 g/ha) was 0 and the “herbicidal rating ECHCG” value (Echinochloa crus-galli [22]; 25 g/ha) was 2. For the same compound, the “herbicidal rating ECHCG” value (Echinochloa crus-galli [22]; 100 g/ha) was 8, the “herbicidal rating ALOMY” value (Alopecurus myosuroides [23]; 12.5 g/ha) was 0 and the “herbicidal rating ALOMY” value (Alopecurus myosuroides [23]; 25 g/ha) was 1. For the same compound, the “herbicidal rating ALOMY” value (Alopecurus myosuroides [23]; 100 g/ha) was 3.
